The text below walks through data of patent publication US11926628B2 (Gilead Sciences, Inc., priority 2021, dated 2024).

For assay [1], the system named is Jurkat NFκB-luciferase cells. The assay is described as follows: Jurkat NFκB-Luciferase Assay. The class given is cell-based. To be noted: Homo sapiens; Jurkat NFκB-luciferase cells activated with anti-CD3 antibody (OKT3), 2.5 hrs at 37° C.; geometric mean; read-out: DGK NFKb Luciferase EC50. On the procedure:
The activity of compounds was tested in a cell based NFκB reporter assay. Jurkat cells that are stably expressing a luciferase reporter construct under the transcriptional control of a NFκB reporter element were activated with an anti-CD3 antibody and luciferase levels were measured with a bioluminescence readout. An increase in the levels of bioluminescence was indicative of enhanced T-cell activation following DGKα inhibition by the compound.
Flat-bottom polystyrene plates (384-well, tissue culture treated) were coated overnight at 4° C. with 20 ul/well of a solution of phosphate-buffered saline supplemented with 5 ug/ml anti-CD3 antibody (clone OKT3, Biolegend). The day after, the excess antibody was washed out five times with 100 ul/well of assay medium (RPMI supplemented with 10% fetal bovine serum) using a Biotek EL406 instrument and leaving 20 ul of residual volume in each well. Jurkat NFκB-luciferase cells (Promega #) were harvested and diluted to 1 million cells/ml in assay medium. Sixty nanoliters of test compound dissolved in DMSO at various concentrations were dispensed into 384-well v-bottom polypropylene plates (Greiner) using a Labcyte Echo instrument. Thirty microliters of medium containing the Jurkat NFκB-luciferase cells were then dispensed using a Biotek MicroFlo instrument in each well of the compound-containing plate. The medium/cell/compound mixture was mixed with a Bravo instrument and 20 ul/well of the mixture was transferred to the anti-CD3-coated plate. The assay mixture was then incubated for 2.5 hrs at 37° C. followed by equilibration at 25° C. for 30 min. Forty microliters of One-Glo Ex (Promega) was then added to the assay mixture and luciferase activity was read on a Envision plate reader 7 minutes later.
Bioluminescence data were normalized based on maximum enhancement (1 micromolar of compound) and on basal activation (DMSO) controls. Least squares curve fittings were performed using a four-parameter variable slope nonlinear regression model. EC50 is defined as the concentration of compound required to produce 50% of maximum NFκB luciferase signal. EC50 values from multiple experiments were averaged by geometric mean and the standard deviation was calculated.

In a further assay the target is human DGKα (Homo sapiens (Human), UniProt P23743). The assay is described as follows: DGKα Biochemical Activity Assay (ADP-Glo). To be noted: recombinant DGKα 1 nM, 100 μM ATP, 18:1 DAG/POPS/octylglucoside micelles, 1 hour at 25° C.; geometric mean; read-out: HTBS DGKa 1X ATP KM IC50. The source says:
Alternatively, the enzymatic activity of human DGKα was monitored in a biochemical assay in the presence or absence of compounds and using micelles containing 18:1 Diacylglycerol (DAG), 16:0-18:1 PS (POPS) and Octylglucoside as substrate. DGKα activity led to conversion of DAG and ATP to Phosphatidic Acid (PA) and ADP. Levels of ADP were monitored by bioluminescence using the ADP-Glo Kinase Assay (Promega) and were indicative of DGKα activity.
Ten nanoliters of test compound dissolved in DMSO at various concentrations were dispensed into a 384-well low volume nonbinding service white plates (Corning #3824) using a Labcyte Echo instrument. Recombinant DGKα (Carna Biosciences) in assay buffer (5 μL in 50 mM MOPS [3-(N-morpholino) propanesulfonic acid], pH 7.2; 0.0025% Triton X-100; 1 mM dithiothreitol; 5 mM MgCl2, 200 μM ATP) was added to the compound-containing plate and was incubated for 15 minutes at 25° C. A substrate solution (5 μL in 1.7 mM 1,2-dioleoyl-sn-glycerol [18:1 DAG], 13.5 mM 1-palmitoyl-2-oleoyl-sn-glycero-3-phospho-L-serine [16:0-18:1 PS](POPS), 2 μM CaCl2, 100 mM Octylglucoside (OG), 1 mM DTT) (obtained from Carna Biosciences) diluted in DGK ALPHA assay buffer was then added to start the reaction. Final concentrations were 1 nM DGKα, 100 μM ATP, 1 μM calcium chloride, 0.85 mM 1,2-dioleoyl-sn-glycerol (18:1 DAG), 6.75 mM 1-palmitoyl-2-oleoyl-sn-glycero-3-phospho-L-serine (16:0-18:1 PS) (POPS), 1 μM CaCl2), 50 mM Octylglucoside (OG) and 5 mM MgCl2. The reaction mixture was incubated at 25° C. for 1 hour. ADP-Glo Reagent (10 μL, 10 mM Mg added) provided by the kit was added to each well and incubated at 25° C. for 40 minutes. Then, 20 μL of Kinase Detection Reagent was added and incubated at 25° C. for 40 minutes. Luciferase activity of each well was measured via luminescence on an Envision plate reader (PerkinElmer).
Data were normalized based on maximum inhibition (50 μM of kinase inhibitor CU3) and no inhibition (DMSO) controls. Least squares curve fittings were performed using a four-parameter variable slope nonlinear regression model. IC50 was defined as the concentration of compound required to inhibit 50% of maximum activity. IC50 values from multiple experiments were averaged by geometric mean and the standard deviation was calculated.

Chain of human DGKα (P23743 whole entry): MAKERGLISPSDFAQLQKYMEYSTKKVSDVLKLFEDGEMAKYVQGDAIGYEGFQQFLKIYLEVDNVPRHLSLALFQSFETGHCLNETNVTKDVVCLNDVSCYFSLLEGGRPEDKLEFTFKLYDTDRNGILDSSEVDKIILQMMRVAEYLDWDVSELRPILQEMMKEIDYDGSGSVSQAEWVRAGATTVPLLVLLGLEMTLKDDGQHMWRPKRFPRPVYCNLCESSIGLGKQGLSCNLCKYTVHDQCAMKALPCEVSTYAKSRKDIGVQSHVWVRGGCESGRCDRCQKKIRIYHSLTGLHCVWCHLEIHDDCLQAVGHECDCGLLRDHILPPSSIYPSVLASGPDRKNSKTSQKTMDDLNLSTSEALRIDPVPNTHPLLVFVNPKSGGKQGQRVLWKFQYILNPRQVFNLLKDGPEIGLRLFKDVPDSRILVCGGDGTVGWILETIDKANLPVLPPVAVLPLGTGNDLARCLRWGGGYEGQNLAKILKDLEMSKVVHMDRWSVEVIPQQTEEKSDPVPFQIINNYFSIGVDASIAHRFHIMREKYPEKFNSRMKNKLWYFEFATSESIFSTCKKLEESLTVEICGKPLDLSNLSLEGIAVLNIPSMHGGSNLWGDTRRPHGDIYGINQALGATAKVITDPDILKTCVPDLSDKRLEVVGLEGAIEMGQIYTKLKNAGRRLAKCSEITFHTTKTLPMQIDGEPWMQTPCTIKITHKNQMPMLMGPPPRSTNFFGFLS

As usually defined, the EC50 is the concentration at which the effect is half-maximal. For orientation: IC50 means the concentration that gives 50% inhibition. In the case of `Cc1nnc2nc(N3CCCc4c(C#CC5(C(F)F)CC5)cncc43)c3c(F)cncc3n12` [Example 35, 5-(5-((1-(difluoromethyl)cyclopropyl)ethynyl)-3,4-dihydro-1,7-naphthyridin-1(2H)-yl)-6-fluoro-1-methylpyrido[4,3-e][1,2,4]triazolo[4,3-a]pyrimidine], the EC50 in assay [1] is 5.97 nM. In addition, the concentration for half-maximal inhibition (IC50) at human DGKα was determined as 20.1 nM.

As for `Cc1nnc2nc(N3CCCc4c(C#CC(C)(C)C(F)(F)F)cncc43)c3c(F)cncc3n12` [Example 36, 6-fluoro-1-methyl-5-(5-(4,4,4-trifluoro-3,3-dimethylbut-1-yn-1-yl)-3,4-dihydro-1,7-naphthyridin-1(2H)-yl)pyrido[4,3-e][1,2,4]triazolo[4,3-a]pyrimidine], the EC50 in assay [1] came out at 8.86 nM. For the same molecule, the 50% inhibitory concentration (IC50) at human DGKα worked out at 40.4 nM.

In the case of `Cc1nnc2nc(N3CCCc4c(C#CC(C)(C)C#N)cncc43)c3c(F)cncc3n12` [Example 37, 4-(1-(6-fluoro-1-methylpyrido[4,3-e][1,2,4]triazolo[4,3-a]pyrimidin-5-yl)-1,2,3,4-tetrahydro-1,7-naphthyridin-5-yl)-2,2-dimethylbut-3-ynenitrile], the EC50 in assay [1] is 54.9 nM. Moreover, the IC50 at human DGKα came to 52.9 nM.

On to `Cc1nnc2nc(N3CCCc4c(C#CC5(C)CC5)cncc43)c3c(F)cncc3n12` [Example 38, 6-fluoro-1-methyl-5-(5-((1-methylcyclopropyl)ethynyl)-3,4-dihydro-1,7-naphthyridin-1(2H)-yl)pyrido[4,3-e][1,2,4]triazolo[4,3-a]pyrimidine], for which the EC50 in assay [1] turned out to be 6.07 nM. Further, the half-inhibitory concentration (IC50) at human DGKα stood at 17.9 nM.

Turning to `Cc1nnc2nc(N3CCCc4c(C#CC5(C(F)(F)F)CC5)cncc43)c3c(F)cncc3n12` [Example 39, 6-fluoro-1-methyl-5-(5-((1-(trifluoromethyl)cyclopropyl)ethynyl)-3,4-dihydro-1,7-naphthyridin-1(2H)-yl)pyrido[4,3-e][1,2,4]triazolo[4,3-a]pyrimidine], the EC50 in assay [1] turned out to be 4.82 nM. In addition, the IC50 on human DGKα stood at 26.2 nM.

As to `Cc1nnc2nc(N3CCCc4c(C#CC5(C)CC5)cccc43)c3c(F)cncc3n12` [Example 40, 6-fluoro-1-methyl-5-(5-((1-methylcyclopropyl)ethynyl)-3,4-dihydroquinolin-1(2H)-yl)pyrido[4,3-e][1,2,4]triazolo[4,3-a]pyrimidine], the EC50 in assay [1] is 2.14 nM. In addition, the IC50 on human DGKα came out at 7.92 nM.

For the molecule `CC(C)(O)C#Cc1cc(F)cc(N(CC(F)F)c2nc3nncn3c3cncc(F)c23)c1` [Example 42, 4-(3-((2,2-difluoroethyl)(6-fluoropyrido[4,3-e][1,2,4]triazolo[4,3-a]pyrimidin-5-yl)amino)-5-fluorophenyl)-2-methylbut-3-yn-2-ol], the EC50 in assay [1] worked out at 43 nM. Moreover, the IC50 on human DGKα stood at 35.4 nM.

Regarding `Fc1cc(C#CC2(C(F)F)CC2)cc(N(CC(F)F)c2nc3nncn3c3cncc(F)c23)c1` [Example 43, N-(2,2-difluoroethyl)-N-(3-((1-(difluoromethyl)cyclopropyl)ethynyl)-5-fluorophenyl)-6-fluoropyrido[4,3-e][1,2,4]triazolo[4,3-a]pyrimidin-5-amine], the EC50 in assay [1] was 5.48 nM. Besides, the IC50 at human DGKα was determined as 33 nM.

As to `CC(C)(C)C#Cc1cc(F)cc(N(CC(F)F)c2nc3nncn3c3cncc(F)c23)c1` [Example 44, N-(2,2-difluoroethyl)-N-(3-(3,3-dimethylbut-1-yn-1-yl)-5-fluorophenyl)-6-fluoropyrido[4,3-e][1,2,4]triazolo[4,3-a]pyrimidin-5-amine], the EC50 in assay [1] is 1.93 nM. The IC50 at human DGKα amounted to 32.7 nM.

For `CC1(C#Cc2cc(F)cc(N(CC(F)F)c3nc4nncn4c4cncc(F)c34)c2)CC1` [Example 45, N-(2,2-difluoroethyl)-6-fluoro-N-(3-fluoro-5-((1-methylcyclopropyl)ethynyl)phenyl)pyrido[4,3-e][1,2,4]triazolo[4,3-a]pyrimidin-5-amine], in assay [1], the EC50 came out at 2.67 nM. Also, the IC50 on human DGKα is 52.1 nM.

Consider `CC(C)(C#Cc1cc(F)cc(N(CC(F)F)c2nc3nncn3c3cncc(F)c23)c1)C(F)(F)F` [Example 46, N-(2,2-difluoroethyl)-6-fluoro-N-(3-fluoro-5-(4,4,4-trifluoro-3,3-dimethylbut-1-yn-1-yl)phenyl)pyrido[4,3-e][1,2,4]triazolo[4,3-a]pyrimidin-5-amine], for which the EC50 in assay [1] amounted to 3.34 nM. The IC50 on human DGKα is 40.9 nM.

Regarding `Fc1cc(C#CC2(C(F)(F)F)CC2)cc(N(CC(F)F)c2nc3nncn3c3cncc(F)c23)c1` [Example 47, N-(2,2-difluoroethyl)-6-fluoro-N-(3-fluoro-5-((1-(trifluoromethyl)cyclopropyl)ethynyl)phenyl)pyrido[4,3-e][1,2,4]triazolo[4,3-a]pyrimidin-5-amine], the EC50 in assay [1] was determined as 4.27 nM. Also, at human DGKα, the IC50 stood at 50.7 nM.

Turning to `Cc1nnc2nc(N(CC(F)F)c3cc(F)cc(C#CC(C)(C)O)c3)c3c(F)cncc3n12` [Example 48, 4-(3-((2,2-difluoroethyl)(6-fluoro-1-methylpyrido[4,3-e][1,2,4]triazolo[4,3-a]pyrimidin-5-yl)amino)-5-fluorophenyl)-2-methylbut-3-yn-2-ol], in assay [1], the EC50 was 97.2 nM. In addition, at human DGKα, the IC50 turned out to be 48.9 nM.

For the molecule `Cc1nnc2nc(N(CC(F)F)c3cc(F)cc(C#CC4(C)CC4)c3)c3c(F)cncc3n12` [Example 49, N-(2,2-difluoroethyl)-6-fluoro-N-(3-fluoro-5-((1-methylcyclopropyl)ethynyl)phenyl)-1-methylpyrido[4,3-e][1,2,4]triazolo[4,3-a]pyrimidin-5-amine], the EC50 in assay [1] was 6.04 nM. The IC50 on human DGKα worked out at 12.6 nM.

Take `Cc1nnc2nc(N(CC(F)F)c3cc(F)cc(C#CC(C)(C)C(F)(F)F)c3)c3c(F)cncc3n12` [Example 50, N-(2,2-difluoroethyl)-6-fluoro-N-(3-fluoro-5-(4,4,4-trifluoro-3,3-dimethylbut-1-yn-1-yl)phenyl)-1-methylpyrido[4,3-e][1,2,4]triazolo[4,3-a]pyrimidin-5-amine]: the EC50 in assay [1] was found to be 4.91 nM. Besides, the IC50 on human DGKα stood at 13 nM.

Take `Cc1nnc2nc(N(CC(F)F)c3cc(F)cc(C#CC4(C(F)(F)F)CC4)c3)c3c(F)cncc3n12` [Example 51, N-(2,2-difluoroethyl)-6-fluoro-N-(3-fluoro-5-((1-(trifluoromethyl)cyclopropyl)ethynyl)phenyl)-1-methylpyrido[4,3-e][1,2,4]triazolo[4,3-a]pyrimidin-5-amine]: in assay [1], the EC50 came to 9.17 nM. In addition, on human DGKα, the IC50 worked out at 36.2 nM.

In the case of `Cc1nnc2nc(N(CC(F)F)c3ccnc(C#CC(C)(C)O)c3)c3c(F)cncc3n12` [Example 52, 4-(4-((2,2-difluoroethyl)(6-fluoro-1-methylpyrido[4,3-e][1,2,4]triazolo[4,3-a]pyrimidin-5-yl)amino)pyridin-2-yl)-2-methylbut-3-yn-2-ol], the EC50 in assay [1] turned out to be 1000 nM. On human DGKα, the IC50 worked out at 204 nM.
